The star is where a group is joined. Palmitoyl = CCCCCCCCCCCCCCCC(=O)*
Assays:
[1] = test system: SOD1; assay: LC-MS/MS relative protein abundance in HDF secretome/matrisome: SOD1; assay type: cell-based, human; details: HDFs, peptide 8 ppm, seven-day culture, secretome + matrisome
Method: (§1) Following incubation with the peptides, liquid chromatography tandem mass spectrometry (LC-MS/MS) was used to quantify the relative abundance differences between proteins identified in the secretome/matrisome, versus an untreated control. HDFs from a donor, plated at 50,000 cells per well, were cultured with either peptide dissolved in cell culture media to achieve a final concentration of 8 ppm or with media without any peptide as a negative control. Treated and control cells were tested in triplicate. The cells were cultured as normal for five days in serum-supplemented media and then for a further two days in serum-free media (seven-day culture in total). The cell media containing the secretome (the proteins secreted by the cell) and the ECM, decellularized by incubation with EDTA (ethylenediaminetetraacetic acid), containing the matrisome (the collection of ECM associated proteins) were collected. The combined secretome and the matrisome compartments were subsequently analysed by LC-MS/MS using the following protocol.
(§2) Proteins were denatured (in urea), reduced (in dithiothreitol) and mechanically disassociated (using ultrasonication) prior to overnight digestion with trypsin (SMART Digest™ trypsin kit; Thermo Fisher). After digestion, samples were cleaned of contaminants up by removal of organic molecules and surfactants using biphasic extraction and desalted using OLIGO™ R3 Reversed Phase Resin (Thermo Fisher).
(§3) Samples (200 ng) were ran on an UltiMate® 3000 Rapid Separation Liquid Chromatographer coupled to a Q Exactive™ Hybrid Quadrupole-Orbitrap™ Mass Spectrometer for 90-minutes per sample run. Spectral data was searched again the Uniprot Human proteome database using Mascot v2.5.1. Subsequent protein identification and data-dependent quantification was performed using Progenesis QI. Normalised protein abundances were compared between each peptide treatment and control. Statistical analysis was performed within Progenesis QI using a between sample ANOVA.
(§4) The mass spectrometry data for each peptide is shown below in table 3 and FIG. 1. Changes in protein synthesis abundance due to each peptide are described below, including changes to specific proteins and the protein families they belong to (table 3). […] These protein families were as follows: antioxidants, cell stress proteins, ECM cleaving enzymes and ECM adhesion proteins; functional protein families all with a potentially important role in dermal repair and remodelling.

[2] = test system: HSPA8; assay: LC-MS/MS relative protein abundance in HDF secretome/matrisome: HSPA8; assay type: cell-based, human; details: HDFs, peptide 8 ppm, seven-day culture, secretome + matrisome
Method: as §1, §2, §3, §4

[3] = test system: HSP90B1; assay: LC-MS/MS relative protein abundance in HDF secretome/matrisome: HSP90B1; assay type: cell-based, human; details: HDFs, peptide 8 ppm, seven-day culture, secretome + matrisome
Method: as §1, §2, §3, §4

[4] = test system: human dermal fibroblasts; assay: LC-MS/MS overall protein synthesis and functional protein families in HDFs (FIG. 1 bubble plot); assay type: cell-based; details: peptide 8 ppm, seven-day culture
Method: as §1, §2, §3, §4
In the bubble plot, the larger the bubble size, the stronger the enhancement of proteins within that protein family.

[5] = test system: CTSL; assay: LC-MS/MS relative protein abundance in HDF secretome/matrisome: CTSL; assay type: cell-based, human; details: HDFs, peptide 8 ppm, seven-day culture, secretome + matrisome
Method: as §1, §2, §3, §4

[6] = test system: PRDX4; assay: LC-MS/MS relative protein abundance in HDF secretome/matrisome: PRDX4; assay type: cell-based, human; details: HDFs, peptide 8 ppm, seven-day culture, secretome + matrisome
Method: as §1, §2, §3, §4

[7] = test system: CD44; assay: LC-MS/MS relative protein abundance in HDF secretome/matrisome: CD44; assay type: cell-based, human; details: HDFs, peptide 8 ppm, seven-day culture, secretome + matrisome
Method: as §1, §2, §3, §4

[8] = test system: Fibronectin; assay: ELISA of fibronectin in culture supernatant of human dermal fibroblasts; assay type: cell-based; details: HDFs, 72 hours, ELISA weighted to viable cells
Method: (§5) An ELISA is an immunological assay commonly used to measure presence and abundance of a specific proteins (antibodies, antigens, proteins and glycoproteins) in biological samples. In this case ELISAs are being used to quantify the expression of dermal extracellular proteins collagen-1, decorin and fibronectin. The quantity of collagen I is evaluated via the quantity of PIP (“carboxU-terminal pro-peptide of procollagen type I”) which is a peptide fragment resulting from the enzymatic degradation of procollagen present outside the fibroblast in the culture supernatant medium.
(§6) For all experiments, the control liquid stock was prepared by dissolving the powdered peptides in DMSO (Dimethyl Sulfoxide solvent). Peptide powders were dissolved in DMSO at recommended part per million concentrations and then further diluted in the cell culture medium and combined to obtain the desired peptide ratio.
(§7) Normal human dermal fibroblasts cells (HDFs) were cultured in contact with the tetrapeptides of the present invention, or composition without the peptide (negative control), for 72 hours. Thereafter the cultured supernatants were removed, and the quantity of dermal extracellular proteins determined using an ELISA assay for the protein of interest. For the ELISA quantification, cell viability was calculated using Hoechst staining allowing the quantity of dermal proteins to be weighted to the number of viable cells.
(§8) The effect of LSXX tetrapeptides on ECM protein expression by fibroblasts as measured by ELISA (columns 1 to 3) versus a tetrapeptide not conforming to the LSXX structure (column 4) are presented in the table below (table 1). Results are expressed as % increase versus the negative control.

[9] = test system: Collagen I (PIP); assay: ELISA of Collagen I (PIP) in culture supernatant of human dermal fibroblasts; assay type: cell-based; details: HDFs, 72 hours, ELISA weighted to viable cells
Method: as §5, §6, §7
The quantity of Collagen I is evaluated via the quantity of PIP (“carboxU-terminal pro-peptide of procollagen type I”) which is a peptide fragment resulting from the enzymatic degradation of procollagen present outside the fibroblast in the culture supernatant medium.
as §8

[10] = test system: Decorin; assay: ELISA of decorin in culture supernatant of human dermal fibroblasts; assay type: cell-based; details: HDFs, 72 hours, ELISA weighted to viable cells
Method: as §5, §6, §7, §8

[11] = test system: Fibrillin-1; assay: Immunofluorescence of Fibrillin-1 expression by HDF cells; assay type: cell-based, human; details: HDFs, 5 days
Method: Immunofluorescence relies on the use of antibodies to label a specific protein with a fluorescent dye such as fluorescein isothiocyanate (FITC). In the following experiments, indirect immunofluorescence is used where a primary antibody first recognises and attaches to the specific protein, in this case fibrillin-1, and then a secondary antibody conjugated with FITC directed against the primary antibody is used for detection.
as §6
Fibrillin-1 expression was determined using immunofluorescence. Primary human dermal fibroblast (HDF) cells were purchased from Promo Cell and came from a donor. Cells were grown in wells of 96 well black walled clear bottomed plates (Peirce, Thermo Fisher). Cells were cultured in HDF media (PromoCell) supplemented with Basic Fibroblast Growth Factor (recombinant human), 1 ng/ml and Insulin 5 μg/ml. Cells were cultured for 5 days in the presence of the tetrapeptides, changing media and peptides every 48 hours, followed by immunofluorescence assessment. At the time of treatment cells were at passage 3-4. After 5 days the media was discarded, and cells fixed with methanol. The Fibrillin-1 fibre formation was probed using primary Fibrillin-1 monoclonal antibody (11C1.3; mouse monoclonal antibody (Thermo Fisher) 1 in 100 dilution overnight) designed to detect Fibrillin-1 protein. The Fibrillin-1 fibre formation was then probed with a secondary Goat anti-mouse IgG Thermo Fisher (1 part antibody in 1000 buffer solution for 1 hour) which includes a fluorescent tag designed to reveal the primary antibody binding pattern.
The antibody binding to Fibrillin-1 fibres was visualised using a Nikon Eclipse 100 microscope fluorescence setting using an excitation lens for fluorescein isothiocyanate (FITC). Images were taken using 6 second UV exposure. ImageJ software was used to quantify the Fibrillin-1 fibre abundance and coverage in each image using a threshold of 235 measuring the fibre density.
Results are expressed as a percentage increase in fibrillin abundance compared to untreated control.
Fibrillin-1 expression by HDF cells treated with tetrapeptides conforming to the LSXX structure (Pal-LSPG-OH, Pal-LSPD-OH and Pal-LSVD-OH) and a tetrapeptide not conforming to the LSXX structure (Pal-GYIL-OH), are presented in the table below (table 2). The peptide concentration used offered the highest yield of Fibrillin-1 production.

Substance	SOD1 (Antioxidants) protein enhanced versus untreated control [1]	HSPA8 (Cell stress) protein enhanced versus untreated control [2]	HSP90B1 (Cell stress) protein enhanced versus untreated control [3]	overall protein synthesis / expression in comparison to the control [4]	CTSL (ECM cleaving enzymes) protein enhanced versus untreated control [5]	PRDX4 (Antioxidants) protein enhanced versus untreated control [6]	CD44 (ECM adhesion) protein enhanced versus untreated control [7]	Fibronectin, % increase versus the negative control ([8]; peptide 5 ppm)	Collagen I (PIP), % increase versus the negative control ([9]; peptide 5 ppm)	Decorin, % increase versus the negative control ([10]; peptide 5 ppm)	Fibrillin-1, percentage increase in fibrillin abundance compared to untreated control ([11]; peptide 10 ppm)	Fibrillin-1, percentage increase in fibrillin abundance compared to untreated control ([11]; peptide 4 ppm)	Fibronectin, % increase versus the negative control ([8]; peptide 3 ppm)	Collagen I (PIP), % increase versus the negative control ([9]; peptide 3 ppm)	Decorin, % increase versus the negative control ([10]; peptide 3 ppm)	Fibrillin-1, percentage increase in fibrillin abundance compared to untreated control ([11]; peptide 8 ppm)
Pal-EKGD-OH [reference compound]	ns	ns	ns	no or limited protein expression	ns	ns	+29%									
Pal-GYIL-OH [reference compound]								−23%	−4%	+2%	+3%					
Pal-LSPD-OH (Palmitoyl-LSPD-OH; SMILES CCCCCCCCCCCCCCCC(=O)N[C@@H](CC(C)C)C(=O)N[C@@H](CO)C(=O)N1CCC[C@H]1C(=O)N[C@@H](CC(=O)O)C(=O)O) [N-palmitoyl tetrapeptide Leu-Ser-Pro-Asp, free C-terminus; LSXX tetrapeptide of the invention]								+92%	+82%	+24%		+98%				
Pal-LSPG-OH (Palmitoyl-LSPG-OH; SMILES CCCCCCCCCCCCCCCC(=O)N[C@@H](CC(C)C)C(=O)N[C@@H](CO)C(=O)N1CCC[C@H]1C(=O)NCC(=O)O) [N-palmitoyl tetrapeptide Leu-Ser-Pro-Gly, free C-terminus; LSXX tetrapeptide of the invention]	+50%	+46%	+105%	overall enhancement of protein synthesis	+107%	+362%	+120%						+82%	+25%	+39%	+111%
Pal-LSVD-OH (Palmitoyl-LSVD-OH; SMILES CCCCCCCCCCCCCCCC(=O)N[C@@H](CC(C)C)C(=O)N[C@@H](CO)C(=O)N[C@H](C(=O)N[C@@H](CC(=O)O)C(=O)O)C(C)C) [N-palmitoyl tetrapeptide Leu-Ser-Val-Asp, free C-terminus; LSXX tetrapeptide of the invention]	+35%	+48%	+49%	overall enhancement of protein synthesis	+42%	+120%	+57%	+24%	+29%	+131%	+151%					
Pal-QTAV-OH [reference compound]	ns	+18%	+30%	no or limited protein expression	+18%	ns	+32%									
